In the assay the test system is Phospho-ERK in NCI-H358 cells expressing KRas G12C. Put plainly: Cellular inhibition of KRas G12C by Phospho-ERK measurement in NCI-H358 cells. The class given is cell-based. As to conditions: Homo sapiens; NCI-H358 cells, 3 hours compound treatment; read-out: IC50 (pERK(Thr202/Tyr204) normalized with GAPDH). The method, then: The cellular inhibition of KRAs G12C by exemplary compounds of the present invention was determined by measuring the amount of a downstream marker of KRas activity, phosphorylated ERK (“Phospho-ERK”).
NCI-H358 cells (ATCC CRL-5807) express KRas G12C and were grown in RPMI medium supplemented with 10% fetal bovine serum, penicillin/streptomycin and 10 mM HEPES. Cells were plated in poly-D-Lysine coated 96-well plates at a concentration of 50,000 cells/well and allowed to attach for 8-12 hours. Diluted compounds were then added at a final concentration of 0.5% DMSO. After 3 hours, the medium was removed, 150 μL of 4% formaldehyde was added and the plates were incubated for 20 minutes. The plates were washed with PBS, and permeabilized using 150 μL of ice cold 100% methanol for 10 minutes. Non-specific antibody binding to the plates was blocked using 100 μL Licor Blocking Buffer (Li-Cor Biotechnology, Lincoln Nebr.) for 1 hour at room temperature. Positive control samples and samples lacking cells were parallel processed with test samples as standards.
The amount Phospho-ERK was determined using an antibody specific for the phosphorylated form of ERK and compared to the amount of GAPDH. Primary antibodies used for detection were added as follows: Phospho-ERK (Cell Signaling cs9101) diluted 1:500 and GAPDH (Millipore MAB374) diluted 1:5000 in Licor block+0.05% Tween 20. The plates were incubated for 2 hours at room temperature. The plates were washed with PBS+0.05% Tween 20.
Secondary antibodies used to visualize primary antibodies were added as follows: Anti-rabbit-680 diluted 1:1000 and Anti-mouse-800 diluted 1:1000 in Licor Block+0.050 Tween 20 and incubated for 1 hour at room temperature. The plates were washed with PBS+0.05% o Tween 20. A100 L aliquot of PBS was added to each well and the plates were read on a LICOR AERIUS plate reader.
The pERK(Thr202/Tyr204) signal was normalized with the GAPDH signal and percent of DMSO control values were calculated. IC50 values were generated using a 4 parameter fit of the dose response curve. Key: “A”≥0.001-≤1 μM; “B”[…] and ND=not determined.

Take `C=CC(=O)N1CCN(c2nc(OC[C@@H]3CCCN3CCOC)nc3c2CCN(c2cccc4ccccc24)C3)CC1CC#N` (stereo partly drawn) [Example 266, 2-(1-acryloyl-4-(2-(((S)-1-(2-methoxyethyl)pyrrolidin-2-yl)methoxy)-7-(naphthalen-1-yl)-5,6,7,8-tetrahydropyrido[3,4-d]pyrimidin-4-yl)piperazin-2-yl)acetonitrile]: the IC50 lay in the range of 1 to 1000 nM.
Take `C=CC(=O)N1CCN(c2nc(OCCN3CCC(OC)CC3)nc3c2CCN(c2cc(O)cc4ccccc24)C3)CC1` [Example 108, 1-(4-(7-(3-hydroxynaphthalen-1-yl)-2-(2-(4-methoxypiperidin-1-yl)ethoxy)-5,6,7,8-tetrahydropyrido[3,4-d]pyrimidin-4-yl)piperazin-1-yl)prop-2-en-1-one]: the IC50 fell in the range of 1 to 1000 nM.
In the case of `C=CC(=O)N1CCN(c2nc(OC[C@@H]3CCCN3C)nc3c2CCN(c2cccc(C)c2C)C3)CC1CC#N` (stereo partly drawn) [Example 228, 2-(1-acryloyl-4-(7-(2,3-dimethylphenyl)-2-(((S)-1-methylpyrrolidin-2-yl)methoxy)-5,6,7,8-tetrahydropyrido[3,4-d]pyrimidin-4-yl)piperazin-2-yl)acetonitrile] it was 1 to 1000 nM.
In the case of `C=CC(=O)N1CCN(c2nc(OC[C@@H]3CCCN3C)nc3c2CCN(c2cncc4ccccc24)C3)CC1CC#N` (stereo partly drawn) [Example 260, 2-[4-[7-(4-isoquinolyl)-2-[[(2S)-1-methylpyrrolidin-2-yl]methoxy]-6,8-dihydro-5H-pyrido[3,4-d]pyrimidin-4-yl]-1-prop-2-enoyl-piperazin-2-yl]acetonitrile] it was 1 to 1000 nM.
In the case of `C=CC(=O)N1CCN(c2nc(OC[C@H]3CN(C)CCO3)nc3c2CCN(c2cccc4ccccc24)C3)CC1CC#N` (stereo partly drawn) [Example 270, 2-(1-acryloyl-4-(2-(((R)-4-methylmorpholin-2-yl)methoxy)-7-(naphthalen-1-yl)-5,6,7,8-tetrahydropyrido[3,4-d]pyrimidin-4-yl)piperazin-2-yl)acetonitrile] it was 1 to 1000 nM; in that of `C=CC(=O)N1CCN(c2nc(OC[C@H]3CCCN3C)nc3c2CCN(c2c(C(F)(F)F)ccc4[nH]ncc24)C3)CC1CC#N` (stereo partly drawn) [Example 243, 2-[4-[2-[[(2R)-1-methylpyrrolidin-2-yl]methoxy]-7-[5-(trifluoromethyl)-1H-indazol-4-yl]-6,8-dihydro-5H-pyrido[3,4-d]pyrimidin-4-yl]-1-prop-2-enoyl-piperazin-2-yl]acetonitrile], 1 to 1000 nM.
For `C=CC(=O)N1CCN(c2nc(O[C@H](C)CN3CC[C@H](OC)C3)nc3c2CCN(c2cc(O)cc4ccccc24)C3)CC1` [Example 64, 1-(4-(7-(3-hydroxynaphthalen-1-yl)-2-(((R)-1-((S)-3-methoxypyrrolidin-1-yl)propan-2-yl)oxy)-5,6,7,8-tetrahydropyrido[3,4-d]pyrimidin-4-yl)piperazin-1-yl)prop-2-en-1-one], the IC50 was in the range of 1 to 1000 nM.
In the case of `C=CC(=O)N1CCN(c2nc(OCC(CO)N(C)C)nc3c2CCN(c2cc(O)cc4ccccc24)C3)CC1` (stereo not drawn) [Example 55, 1-(4-(2-(2-(dimethylamino)-3-hydroxypropoxy)-7-(3-hydroxynaphthalen-1-yl)-5,6,7,8-tetrahydropyrido[3,4-d]pyrimidin-4-yl)piperazin-1-yl)prop-2-en-1-one] it was 1 to 1000 nM.
In the case of `C=CC(=O)N1CCN(c2nc(OC(C)CCN(C)C)nc3c2CCN(c2cc(O)cc4ccccc24)C3)CC1` (stereo not drawn) [Example 21, 1-(4-(2-((4-(dimethylamino)butan-2-yl)oxy)-7-(3-hydroxynaphthalen-1-yl)-5,6,7,8-tetrahydropyrido[3,4-d]pyrimidin-4-yl)piperazin-1-yl)prop-2-en-1-one] it was 1 to 1000 nM; in that of `C=CC(=O)N1CCN(c2nc(O[C@H](C)CN(C)C)nc3c2CCN(c2c(C)ccc4[nH]ncc24)C3)CC1CC#N` (stereo partly drawn) [Example 152, 2-[4-[2-[(1R)-2-(dimethylamino)-1-methyl-ethoxy]-7-(5-methyl-1H-indazol-4-yl)-6,8-dihydro-5H-pyrido[3,4-d]pyrimidin-4-yl]-1-prop-2-enoyl-piperazin-2-yl]acetonitrile], 1 to 1000 nM.
Consider `C=CC(=O)N1CCN(c2nc(OCCN3CCCC[C@H]3C)nc3c2CCN(c2cc(O)cc4ccccc24)C3)CC1` [Example 97, (R)-1-(4-(7-(3-hydroxynaphthalen-1-yl)-2-(2-(2-methylpiperidin-1-yl)ethoxy)-5,6,7,8-tetrahydropyrido[3,4-d]pyrimidin-4-yl)piperazin-1-yl)prop-2-en-1-one], for which the IC50 fell in the range of 1 to 1000 nM.
The value for `C=CC(=O)N1CCN(c2nc(OC[C@@H]3CCCN3CCOC)nc3c2CCN(c2cc(O)cc4ccccc24)C3)CC1` [Example 144, (S)-1-(4-(7-(3-hydroxynaphthalen-1-yl)-2-((1-(2-methoxyethyl)pyrrolidin-2-yl)methoxy)-5,6,7,8-tetrahydropyrido[3,4-d]pyrimidin-4-yl)piperazin-1-yl)prop-2-en-1-one] was 1 to 1000 nM.
Consider `C=CC(=O)N1CCN(c2nc(OCCCN3CCOCC3)nc3c2CCN(c2cc(O)cc4ccccc24)C3)CC1` [Example 74, 1-(4-(7-(3-hydroxynaphthalen-1-yl)-2-(3-morpholinopropoxy)-5,6,7,8-tetrahydropyrido[3,4-d]pyrimidin-4-yl)piperazin-1-yl)prop-2-en-1-one], for which the IC50 was 1 to 1000 nM.
Consider `C=CC(=O)N1CCN(c2nc(OCCCN3CCCCC3)nc3c2CCN(c2cc(O)cc4ccccc24)C3)CC1` [Example 38, 1-(4-(7-(3-hydroxynaphthalen-1-yl)-2-(3-(piperidin-1-yl)propoxy)-5,6,7,8-tetrahydropyrido[3,4-d]pyrimidin-4-yl)piperazin-1-yl)prop-2-en-1-one], for which the IC50 was 1 to 1000 nM.
With `C=CC(=O)N1CCN(c2nc(OC[C@@H]3CCCN3C)nc3c2CCN(c2cccc(F)c2C(F)(F)F)C3)CC1CC#N` (stereo partly drawn) [Example 230, 2-(1-acryloyl-4-(7-(3-fluoro-2-(trifluoromethyl)phenyl)-2-(((S)-1-methylpyrrolidin-2-yl)methoxy)-5,6,7,8-tetrahydropyrido[3,4-d]pyrimidin-4-yl)piperazin-2-yl)acetonitrile], the IC50 is 1 to 1000 nM.
The value for `C=CC(=O)N1CCN(c2nc(OC[C@@H]3CCCN3C)nc3c2CCN(c2cccc4cc(F)ccc24)C3)CC1CC#N` (stereo partly drawn) [Example 259, 2-[4-[7-(6-fluoro-1-naphthyl)-2-[[(2S)-1-methylpyrrolidin-2-yl]methoxy]-6,8-dihydro-5H-pyrido[3,4-d]pyrimidin-4-yl]-1-prop-2-enoyl-piperazin-2-yl]acetonitrile] was 1 to 1000 nM.
The value for `C=CC(=O)N1CCN(c2nc(OCCCN3CCN(C)CC3)nc3c2CCN(c2cc(O)cc4ccccc24)C3)CC1` [Example 82, 1-(4-(7-(3-hydroxynaphthalen-1-yl)-2-(3-(4-methylpiperazin-1-yl)propoxy)-5,6,7,8-tetrahydropyrido[3,4-d]pyrimidin-4-yl)piperazin-1-yl)prop-2-en-1-one] was 1 to 1000 nM; that for `C=CC(=O)N1CCN(c2nc(OCCCN3CCN(C(C)=O)CC3)nc3c2CCN(c2cc(O)cc4ccccc24)C3)CC1` [Example 135, 1-[4-[2-[3-(4-acetylpiperazin-1-yl)propoxy]-7-(3-hydroxy-1-naphthyl)-6,8-dihydro-5H-pyrido[3,4-d]pyrimidin-4-yl]piperazin-1-yl]prop-2-en-1-one] was 1 to 1000 nM.

Source of the values: patent publication US11267812B2 (Mirati Therapeutics, Inc., priority 2016, dated 2022).
